# Where two headings read alike, the source gives them in different places.
# What was measured:
# [1] = tested on: U87; test: Viability assay (CellTiter 96 Aqueous1), cell growth inhibition; assay type: cell-based; settings: Homo sapiens, U-87 MG
# Description: (§1) Cell lines and reagents. The tumor cell lines used for the in vitro evaluation of cell growth inhibition by dihydroxypirolidine derivatives were U87 (glioblastoma), PC3 (prostate cancer), A549 (lung carcinoma), MDA-MB231, MCF7, BT474, and SKBR3 (breast cancer). Cells were grown in 10-cm culture dishes with McCoy medium containing 10% fetal calf serum (FCS) and antibiotics at 37°C and 5% CO2. The dihydroxypirolidine derivatives CB161, CB181, and CB183 were weighted and dissolved in DMSO to prepare a stock solution concentrated 100 mM.
# (§2) Viability assays. For the viability assays, 5 x 10^4 cells/well were plated in 200 µl medium in 96 well plates. 48 hours later, the dihydroxypirolidine derivatives were added to the wells at concentrations ranging between 10^-2 and 400 µM, such that the vehicle DMSO never exceeded 0.4%. Each drug concentration was tested in duplicate. Viability was determined 72 hours later using CellTiter 96 Aqueous1 (Promega) according to the manufacturer's instructions. Incubation times with CellTiter96 Aqueous1 ranged between 2 and 4 hours. Plates were read with a spectrophotometer (Labsystems iEMS Reader MF) at 490 nm wave length. IC50s were estimated using GraphPad Prism4.
# [2] = tested on: SKBR3; test: as above; assay type: cell-based; settings: Homo sapiens, SK-BR-3; SKBR3 (breast cancer), viability 72 hours after addition
# Description: as §1, §2
# [3] = tested on: PC3; test: as above; assay type: cell-based; settings: Homo sapiens, PC-3; PC3 (prostate cancer), viability 72 hours after addition
# Description: as §1, §2
# [4] = tested on: MCF7; test: as above; assay type: cell-based; settings: Homo sapiens; MCF7 (breast cancer), viability 72 hours after addition
# Description: as §1, §2
# [5] = tested on: A549; test: as above; assay type: cell-based; settings: Homo sapiens; A549 (lung carcinoma), viability 72 hours after addition
# Description: as §1, §2
# [6] = tested on: MDA-MB-231; test: as above; assay type: cell-based; settings: Homo sapiens; MDA-MB-231 (breast cancer), viability 72 hours after addition
# Description: as §1, §2
# [7] = tested on: BT474; test: as above; assay type: cell-based; settings: Homo sapiens, BT-474; BT474 (breast cancer), viability 72 hours after addition
# Description: as §1, §2
# [8] = tested on: seven established human tumor cell lines; test: Viability assay, panel of seven tumor cell lines; assay type: cell-based; settings: all the cell lines tested
# Description: as §1, §2
# [9] = tested on: human glioblastoma cells; settings: S. Favre et al., Heterocycles 2006; cited from earlier work
# [10] = tested on: glioblastoma cell growth; settings: H. Fiaux et al., J. Med. Chem. 2005; cited from earlier work
# [11] = refers to Figure 8 (U87 glioblastoma), read-out: IC50s (growth inhibition effects)
compound,measurement,setting,value
OC[C@H](NC[C@H]1NC[C@H](O)[C@@H]1O)c1ccc(-c2ccccc2)cc1 [CB161],IC50,[1]; [11],> 200 µM
"C=CCOc1ccc([C@H](CO)NC[C@H]2NC[C@H](O)[C@@H]2O)cc1 [CB181, (2R,3R,4S)-2{{{(1R)-2-hydroxy-1-[4-(prop-2-enyloxy)phenyl]ethyl}amino}methyl} pyrrolidine-3,4-diol]",IC50,[1]; [11],> 200 µM
"OC[C@H](NC[C@H]1NC[C@H](O)[C@@H]1O)c1ccc(-c2ccc(C(F)(F)F)cc2)cc1 [CB183, (2R,3R,4S)-2-{{{(1R)-2-hydroxy-1-[4'-(trifluoromethyl)-[1,1'-biphenyl]-4-1]ethyl}amino}methyl}pyrrolidine-3,4-diol]",IC50,"[1]; U87 (glioblastoma), viability 72 hours after addition, read-out: IC50",80 µM
same,IC50,[2],48.3 µM
same,IC50,[3],132 µM
same,IC50,[4],76.7 µM
same,IC50,[5],152 µM
same,IC50,[6],65.8 µM
same,IC50,[7],93.3 µM
same,potent cytotoxic activity for concentrations,[8],< 200 µM
"O=C(NC[C@H](NC[C@H]1NC[C@H](O)[C@@H]1O)c1ccccc1)c1cccc(Br)c1 [N-[(2R)-2-({[(2R,3R,4S)-3,4-dihydroxypyrrolidin-2-yl]methyl}amino)-2-phenylethyl]-3-bromobenz-amide]",inhibition of human glioblastoma cells,[9],convincing inhibition
O[C@H]1[C@H]2[C@H](O)CCCN2C[C@H]1O [swainsonine],inhibitory effect on glioblastoma cell growth,[10],only little inhibitory effect
